Experimental findings from US11053218B2, “3-(1-oxoisoindolin-2-yl)piperidine-2,6-dione derivatives and uses thereof” (Novartis AG, priority 2017, dated 2021) are described below.

SMILES strings stand for the structures. Read-outs that look alike come from different tables or passages of the source. A value given as a limit tells only on which side of the number the result lay.

Holding throughout (assay type): cell-based
The target of experiment [1] is GSPT1 (Homo sapiens, UniProt P15170+Q96SW2). Kind of experiment: Prolabel quantification of GSPT1 protein levels in 293GT cells. As to conditions: Prolabel assay, read-out: GSPT1 EC50.
Experiment [2] concerns the target IKZF1 (Homo sapiens, UniProt Q13422+Q96SW2). Description: Prolabel quantification of IKZF1 protein levels in 293GT cells. As to conditions: Prolabel assay, read-out: IKZF1 EC50.
Experiment [3] has as its target IKZF2 (Homo sapiens, UniProt Q96SW2+Q9UKS7). Description: Prolabel quantification of IKZF2 protein levels in 293GT cells.
[4] abbreviates: 24 h, 10 μM, 24 h, 293GT cells; read-out: IKZF2 % protein reduction at 10 μM, 24 h.
The mark [5] stands for this setting: Prolabel assay, 293GT cells; read-out: IKZF2 EC50.
The mark [6] stands for this setting: 10 μM, 24 h, 293GT cells; read-out: IKZF2 % protein reduction at 10 μM, 24 h.
[7] abbreviates: Prolabel assay in HEK293GT cells, bar graph.

IKZF2, sequence (Q9UKS7 whole entry): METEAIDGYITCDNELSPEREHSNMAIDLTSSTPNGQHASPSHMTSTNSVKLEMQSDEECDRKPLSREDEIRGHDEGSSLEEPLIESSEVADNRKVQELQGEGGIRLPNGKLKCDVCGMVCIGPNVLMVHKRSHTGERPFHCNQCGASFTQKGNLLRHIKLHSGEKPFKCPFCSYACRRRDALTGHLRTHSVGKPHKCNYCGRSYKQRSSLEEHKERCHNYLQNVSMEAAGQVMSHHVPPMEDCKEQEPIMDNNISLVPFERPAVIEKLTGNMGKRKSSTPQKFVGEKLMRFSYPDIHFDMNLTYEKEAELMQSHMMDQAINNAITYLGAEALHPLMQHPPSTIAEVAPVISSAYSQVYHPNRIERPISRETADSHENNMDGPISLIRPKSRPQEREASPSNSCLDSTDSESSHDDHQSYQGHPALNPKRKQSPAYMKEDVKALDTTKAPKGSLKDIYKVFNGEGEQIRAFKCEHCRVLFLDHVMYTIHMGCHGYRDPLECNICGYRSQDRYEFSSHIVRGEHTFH
IKZF2, sequence (Q96SW2 whole entry): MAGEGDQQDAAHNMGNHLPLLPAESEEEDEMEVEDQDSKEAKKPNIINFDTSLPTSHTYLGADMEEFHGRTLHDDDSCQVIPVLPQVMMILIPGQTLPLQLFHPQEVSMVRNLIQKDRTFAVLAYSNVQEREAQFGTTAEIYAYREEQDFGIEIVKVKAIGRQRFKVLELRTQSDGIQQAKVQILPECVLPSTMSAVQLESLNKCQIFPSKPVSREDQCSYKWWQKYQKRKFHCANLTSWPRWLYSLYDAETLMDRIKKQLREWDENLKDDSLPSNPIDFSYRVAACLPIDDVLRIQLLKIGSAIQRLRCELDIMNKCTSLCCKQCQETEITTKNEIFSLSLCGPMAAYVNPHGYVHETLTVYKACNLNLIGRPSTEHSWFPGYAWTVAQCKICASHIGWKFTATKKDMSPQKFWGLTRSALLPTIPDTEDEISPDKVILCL
IKZF2, sequence (Q16531 whole entry partner): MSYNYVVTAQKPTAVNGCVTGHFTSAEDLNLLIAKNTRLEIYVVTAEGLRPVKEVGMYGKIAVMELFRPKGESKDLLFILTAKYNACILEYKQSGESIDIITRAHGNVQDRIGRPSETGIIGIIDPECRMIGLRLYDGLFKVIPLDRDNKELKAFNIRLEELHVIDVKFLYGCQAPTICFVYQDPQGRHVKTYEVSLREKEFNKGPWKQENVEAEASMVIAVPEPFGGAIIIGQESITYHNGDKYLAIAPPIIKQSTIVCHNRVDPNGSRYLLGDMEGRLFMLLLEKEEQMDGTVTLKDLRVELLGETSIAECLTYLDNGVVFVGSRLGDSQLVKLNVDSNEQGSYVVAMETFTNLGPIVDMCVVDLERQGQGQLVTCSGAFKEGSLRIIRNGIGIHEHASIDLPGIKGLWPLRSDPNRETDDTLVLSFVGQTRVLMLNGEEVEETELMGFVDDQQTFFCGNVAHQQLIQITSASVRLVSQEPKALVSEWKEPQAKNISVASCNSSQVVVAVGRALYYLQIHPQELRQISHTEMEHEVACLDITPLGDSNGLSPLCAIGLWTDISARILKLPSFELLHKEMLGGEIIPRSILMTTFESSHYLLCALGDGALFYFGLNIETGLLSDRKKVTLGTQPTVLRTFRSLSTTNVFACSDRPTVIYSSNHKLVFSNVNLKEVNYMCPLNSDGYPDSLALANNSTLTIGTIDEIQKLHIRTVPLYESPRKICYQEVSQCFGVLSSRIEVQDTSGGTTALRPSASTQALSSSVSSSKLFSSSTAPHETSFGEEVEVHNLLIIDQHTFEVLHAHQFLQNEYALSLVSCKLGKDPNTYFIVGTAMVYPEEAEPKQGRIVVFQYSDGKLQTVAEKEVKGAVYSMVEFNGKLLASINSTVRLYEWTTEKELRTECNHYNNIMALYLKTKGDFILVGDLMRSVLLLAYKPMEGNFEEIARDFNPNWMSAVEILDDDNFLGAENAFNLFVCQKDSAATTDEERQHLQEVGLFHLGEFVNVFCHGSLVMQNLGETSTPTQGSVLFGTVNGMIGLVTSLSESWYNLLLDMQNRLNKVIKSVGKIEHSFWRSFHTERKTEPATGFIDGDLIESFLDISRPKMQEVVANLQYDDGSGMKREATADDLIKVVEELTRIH
IKZF1, sequence (Q13422 whole entry): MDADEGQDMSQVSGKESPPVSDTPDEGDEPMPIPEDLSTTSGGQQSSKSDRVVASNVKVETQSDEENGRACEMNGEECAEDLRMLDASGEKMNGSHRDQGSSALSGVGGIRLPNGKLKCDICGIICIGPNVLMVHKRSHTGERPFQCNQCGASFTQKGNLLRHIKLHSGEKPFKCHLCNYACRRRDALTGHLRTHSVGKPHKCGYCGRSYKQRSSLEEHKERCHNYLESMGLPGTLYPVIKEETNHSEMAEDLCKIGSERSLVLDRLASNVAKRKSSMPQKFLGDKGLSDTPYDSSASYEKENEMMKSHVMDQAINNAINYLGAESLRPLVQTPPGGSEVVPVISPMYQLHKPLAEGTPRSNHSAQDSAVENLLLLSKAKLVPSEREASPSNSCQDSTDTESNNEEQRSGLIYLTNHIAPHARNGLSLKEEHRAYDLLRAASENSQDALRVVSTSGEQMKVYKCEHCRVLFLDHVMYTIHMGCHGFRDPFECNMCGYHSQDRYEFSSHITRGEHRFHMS
IKZF1, sequence (Q96SW2 whole entry): as the sequence (Q96SW2 whole entry) above
IKZF1, sequence (Q16531 whole entry partner): as the sequence (Q16531 whole entry partner) above
GSPT1, sequence (P15170 whole entry): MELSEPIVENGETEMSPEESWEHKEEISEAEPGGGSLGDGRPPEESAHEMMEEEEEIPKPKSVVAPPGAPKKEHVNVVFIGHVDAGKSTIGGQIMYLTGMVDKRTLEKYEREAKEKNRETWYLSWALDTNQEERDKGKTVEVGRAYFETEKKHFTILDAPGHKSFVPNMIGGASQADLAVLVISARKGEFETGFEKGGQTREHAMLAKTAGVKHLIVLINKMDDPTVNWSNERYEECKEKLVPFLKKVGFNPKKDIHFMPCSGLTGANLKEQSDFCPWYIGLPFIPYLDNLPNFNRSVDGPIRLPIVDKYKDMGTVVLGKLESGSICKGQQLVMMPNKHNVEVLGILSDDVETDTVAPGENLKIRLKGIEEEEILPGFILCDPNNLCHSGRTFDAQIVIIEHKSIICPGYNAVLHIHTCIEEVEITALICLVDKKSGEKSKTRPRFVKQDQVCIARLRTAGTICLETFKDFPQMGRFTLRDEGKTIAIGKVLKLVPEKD
GSPT1, sequence (Q96SW2 whole entry): as the sequence (Q96SW2 whole entry) above
GSPT1, sequence (Q16531 whole entry partner): as the sequence (Q16531 whole entry partner) above

For the molecule `CN(C)S(=O)(=O)c1ccc(CN2CCC(c3ccc4c(c3)CN(C3CCC(=O)NC3=O)C4=O)CC2)cc1` (stereo not shown) [Compound I-237, 4-((4-(2-(2,6-dioxopiperidin-3-yl)-1-oxoisoindolin-5-yl)piperidin-1-yl)methyl)-N,N-dimethylbenzenesulfonamide], the DC50 is > 30 µM in experiment [1], > 30 µM in experiment [2] and 0.02 µM in experiment [3] (setting [5]). For the same molecule, in experiment [3] (setting [4]), the inhibition at 10 µM was 70%.

Take `O=C1CCC(N2Cc3cc(C4CCN(Cc5nc(-c6ccccc6)c[nH]5)CC4)ccc3C2=O)C(=O)N1` (stereo not shown) [Compound I-154, 3-(1-oxo-5-(1-((4-phenyl-1H-imidazol-2-yl)methyl)piperidin-4-yl)isoindolin-2-yl)piperidine-2,6-dione]: the DC50 was > 30 µM in experiment [1], 0.043 µM in experiment [2] and 0.008 µM in experiment [3] (setting [5]). For the same molecule, the inhibition at 10 µM in experiment [3] (setting [4]) is 85%.

For `N#CCc1ccc(CN2CCC(c3ccc4c(c3)CN(C3CCC(=O)NC3=O)C4=O)CC2)cc1` (stereo not shown) [Compound I-206, 2-(4-((4-(2-(2,6-dioxopiperidin-3-yl)-1-oxoisoindolin-5-yl)piperidin-1-yl)methyl)phenyl)acetonitrile], the values for the DC50 in experiment [1], in experiment [2] and in experiment [3] (setting [5]) were > 30 µM, > 30 µM and 0.009 µM, respectively. For the same molecule, the inhibition at 10 µM in experiment [3] (setting [4]) was determined as 80%.

Take `O=C1CCC(N2Cc3cc(C4CCN(Cc5ccc(Cl)cc5Cl)CC4)ccc3C2=O)C(=O)N1` (stereo not shown) [Compound I-113, 3-(5-(1-(2,4-dichlorobenzyl)piperidin-4-yl)-1-oxoisoindolin-2-yl)piperidine-2,6-dione]: the DC50 in experiment [1] is > 30 µM; in experiment [2], > 30 µM; in experiment [3] (setting [5]), 0.015 µM. For the same molecule, in experiment [3] (setting [4]), the inhibition at 10 µM came to 50%.

Regarding `COc1ccc(CN2CCC(c3ccc4c(c3)CN(C3CCC(=O)NC3=O)C4=O)CC2)cc1` (stereo not shown) [Compound I-39, 3-(5-(1-(4-methoxybenzyl)piperidin-4-yl)-1-oxoisoindolin-2-yl)piperidine-2,6-dione], the DC50 in experiment [1] and in experiment [2] was > 50 µM throughout. In addition, the inhibition at 10 µM in experiment [3] (setting [6]) was determined as 45%.

Turning to `O=C1CCC(N2Cc3cc(C4CCN(Cc5ccc6cn[nH]c6c5)CC4)ccc3C2=O)C(=O)N1` (stereo not shown) [Compound I-137, 3-(5-(1-((1H-indazol-6-yl)methyl)piperidin-4-yl)-1-oxoisoindolin-2-yl)piperidine-2,6-dione], the DC50 in experiment [1] was > 30 µM; in experiment [2] it was > 30 µM; in experiment [3] (setting [5]), 0.009 µM. In addition, the inhibition at 10 µM in experiment [3] (setting [4]) was 80%.

Regarding `COC(=O)CN1CCC(c2ccc3c(c2)CN(C2CCC(=O)NC2=O)C3=O)CC1` (stereo not shown) [Compound I-169, methyl 2-(4-(2-(2,6-dioxopiperidin-3-yl)-1-oxoisoindolin-5-yl)piperidin-1-yl)acetate], the DC50 in experiment [1] and in experiment [2] was > 50 µM throughout. In addition, the inhibition at 10 µM in experiment [3] (setting [6]) was 20%.

As for `NC(=O)c1ccc(CN2CCC(c3ccc4c(c3)CN(C3CCC(=O)NC3=O)C4=O)CC2)cc1` (stereo not shown) [Compound I-71, 4-((4-(2-(2,6-dioxopiperidin-3-yl)-1-oxoisoindolin-5-yl)piperidin-1-yl)methyl)benzamide], the DC50 in experiment [1] was > 30 µM; in experiment [2], > 30 µM; in experiment [3] (setting [5]), 0.027 µM. Also, the inhibition at 10 µM in experiment [3] (setting [4]) is 80%.

As to `O=C1CCC(N2Cc3cc(C4CCN(Cc5ccc(-c6ccccc6)cc5)CC4)ccc3C2=O)C(=O)N1` (stereo not shown) [Compound I-90, 3-(5-(1-([1,1′-biphenyl]-4-ylmethyl)piperidin-4-yl)-1-oxoisoindolin-2-yl)piperidine-2,6-dione], the DC50 is > 50 µM in experiment [1], > 50 µM in experiment [2] and 0.007 µM in experiment [3] (setting [5]). The inhibition at 10 µM in experiment [3] (setting [6]) was determined as 65%.

On to `O=C1CCC(N2Cc3cc(C4CCN(Cc5cc6ccccc6[nH]5)CC4)ccc3C2=O)C(=O)N1` (stereo not shown) [Compound I-136, 3-(5-(1-((1H-indo1-2-yl)methyl)piperidin-4-yl)-1-oxoisoindolin-2-yl)piperidine-2,6-dione], for which the DC50 is > 30 µM in experiment [1], > 30 µM in experiment [2] and 0.012 µM in experiment [3] (setting [5]). Further, the inhibition at 10 µM in experiment [3] (setting [4]) was found to be 80%. In addition, in experiment [3] (setting [7]), the “IKZF2 protein levels as compared to the control (DMSO)” value is recorded as “decreased”.

With `O=C1CCC(N2Cc3cc(C4CCN(Cc5cnc(N6CCOCC6)nc5)CC4)ccc3C2=O)C(=O)N1` (stereo not shown) [Compound I-147, 3-(5-(1-((2-morpholinopyrimidin-5-yl)methyl)piperidin-4-yl)-1-oxoisoindolin-2-yl)piperidine-2,6-dione], the DC50 in experiment [1] is > 30 µM; in experiment [2], > 30 µM; in experiment [3] (setting [5]), 0.025 µM. Further, in experiment [3] (setting [4]), the inhibition at 10 µM turned out to be 75%. Besides, the “IKZF2 protein levels as compared to the control (DMSO)” value in experiment [3] (setting [7]) is recorded as “decreased”.

Turning to `O=C1CCC(N2Cc3cc(C4CCN(Cc5cnc(N6CCCC6)nc5)CC4)ccc3C2=O)C(=O)N1` (stereo not shown) [Compound I-142, 3-(1-oxo-5-(1-((2-(pyrrolidin-1-yl)pyrimidin-5-yl)methyl)piperidin-4-yl)isoindolin-2-yl)piperidine-2,6-dione], the values for the DC50 in experiment [1], in experiment [2] and in experiment [3] (setting [5]) were > 30 µM, > 30 µM and 0.016 µM, respectively. In experiment [3] (setting [4]), the inhibition at 10 µM stood at 75%.

For the molecule `COc1ncc(CN2CCC(c3ccc4c(c3)CN(C3CCC(=O)NC3=O)C4=O)CC2)cn1` (stereo not shown) [Compound I-68, 3-(5-(1-((2-methoxypyrimidin-5-yl)methyl)piperidin-4-yl)-1-oxoisoindolin-2-yl)piperidine-2,6-dione], the DC50 was > 30 µM in experiment [1], > 50 µM in experiment [2] and 0.003 µM in experiment [3] (setting [5]). Besides, the inhibition at 10 µM in experiment [3] (setting [4]) turned out to be 50%. In addition, the “IKZF2 protein levels as compared to the control (DMSO)” value in experiment [3] (setting [7]) is “decreased”.

As for `O=C1CCC(N2Cc3cc(C4CCCNCC4)ccc3C2=O)C(=O)N1` (single isomer, unassigned) [Compound I-167, 3-(5-(azepan-4-yl)-1-oxoisoindolin-2-yl)piperidine-2,6-dione], the DC50 in experiment [1] and in experiment [2] was > 50 µM throughout. For the same molecule, the inhibition at 10 µM in experiment [3] (setting [4]) came out at 25%.

In the case of `CN(C)S(=O)(=O)c1cccc(CN2CCC(c3ccc4c(c3)CN(C3CCC(=O)NC3=O)C4=O)CC2)c1` (stereo not shown) [Compound I-216, 3-((4-(2-(2,6-dioxopiperidin-3-yl)-1-oxoisoindolin-5-yl)piperidin-1-yl)methyl)-N,N-dimethylbenzenesulfonamide], the figures for the DC50 in experiment [1], in experiment [2] and in experiment [3] (setting [5]) were > 30 µM, 0.22 µM and 0.01 µM, respectively. In addition, the inhibition at 10 µM in experiment [3] (setting [4]) was 80%.

Consider `O=C1CCC(N2Cc3cc(C4CCN(Cc5ccc(-n6cccn6)cc5)CC4)ccc3C2=O)C(=O)N1` (stereo not shown) [Compound I-91, 3-(5-(1-(4-(1H-pyrazol-1-yl)benzyl)piperidin-4-yl)-1-oxoisoindolin-2-yl)piperidine-2,6-dione], for which the DC50 is > 30 µM in experiment [1], > 30 µM in experiment [2] and 0.018 µM in experiment [3] (setting [5]). Also, the inhibition at 10 µM in experiment [3] (setting [4]) was 75%.

For `CN1CCN(Cc2cc(CN3CCC(c4ccc5c(c4)CN(C4CCC(=O)NC4=O)C5=O)CC3)ccc2O)CC1` (stereo not shown) [Compound I-205, 3-(5-(1-(4-hydroxy-3-((4-methylpiperazin-1-yl)methyl)benzyl)piperidin-4-yl)-1-oxoisoindolin-2-yl)piperidine-2,6-dione], the DC50 in experiment [1] was > 30 µM; in experiment [2], > 30 µM; in experiment [3] (setting [5]), 0.05 µM. In experiment [3] (setting [4]), the inhibition at 10 µM worked out at 70%.

For `O=C1CCC(N2Cc3cc(C4CCN(CC(F)(F)F)CC4)ccc3C2=O)C(=O)N1` (stereo not shown) [Compound I-253, 3-(1-oxo-5-(1-(2,2,2-trifluoroethyl)piperidin-4-yl)isoindolin-2-yl)piperidine-2,6-dione], the DC50 in experiment [1], in experiment [2] and in experiment [3] (setting [5]) was > 50 µM each time. Besides, the inhibition at 10 µM in experiment [3] (setting [4]) turned out to be 0%.

Regarding `O=C1CCC(N2Cc3cc(C4CCN(CC5CCCc6ccccc65)CC4)ccc3C2=O)C(=O)N1` (stereo not shown) [Compound I-168, 3-(1-oxo-5-(1-((1,2,3,4-tetrahydronaphthalen-1-yl)methyl)piperidin-4-yl)isoindolin-2-yl)piperidine-2,6-dione], the results for the DC50 in experiment [1], in experiment [2] and in experiment [3] (setting [5]) were > 50 µM, > 50 µM and 0.014 µM, respectively. Moreover, in experiment [3] (setting [4]), the inhibition at 10 µM was found to be 55%.

Regarding `CC(C)(C)c1cccc(CN2CCC(c3ccc4c(c3)CN(C3CCC(=O)NC3=O)C4=O)CC2)c1` (stereo not shown) [Compound I-107, 3-(5-(1-(3-(tert-butyl)benzyl)piperidin-4-yl)-1-oxoisoindolin-2-yl)piperidine-2,6-dione], the figures for the DC50 in experiment [1], in experiment [2] and in experiment [3] (setting [5]) were > 30 µM, 0.14 µM and 0.023 µM, respectively. Further, the inhibition at 10 µM in experiment [3] (setting [4]) turned out to be 80%.

With `O=C1CCC(N2Cc3cc(C4CCN(Cc5ccc(Cl)cc5)CC4)ccc3C2=O)C(=O)N1` (stereo not shown) [Compound I-97, 3-(5-(1-(4-chlorobenzyl)piperidin-4-yl)-1-oxoisoindolin-2-yl)piperidine-2,6-dione], the DC50 in experiment [1] is > 50 µM; in experiment [2] it was > 50 µM; in experiment [3] (setting [5]), 0.027 µM. Besides, in experiment [3] (setting [4]), the inhibition at 10 µM is 55%.

For `CC1(C)CC(c2ccc3c(c2)CN(C2CCC(=O)NC2=O)C3=O)CC(C)(C)N1` (stereo not shown) [Compound I-171, 3-(1-oxo-5-(2,2,6,6-tetramethylpiperidin-4-yl)isoindolin-2-yl)piperidine-2,6-dione], the DC50 in experiment [1] and in experiment [2] was > 50 µM in each case. Moreover, the inhibition at 10 µM in experiment [3] (setting [4]) was 5%.

In the case of `Cc1ccc2sc(-c3ccc(CN4CCC(c5ccc6c(c5)CN(C5CCC(=O)NC5=O)C6=O)CC4)cc3)nc2c1` (stereo not shown) [Compound I-225, 3-(5-(1-(4-(5-methylbenzo[d]thiazo1-2-yl)benzyl)piperidin-4-yl)-1-oxoisoindolin-2-yl)piperidine-2,6-dione], the DC50 in experiment [1] was > 30 µM; in experiment [2] it was > 30 µM; in experiment [3] (setting [5]) it was 0.12 µM. The inhibition at 10 µM in experiment [3] (setting [4]) turned out to be 65%.
